Test results from patent US6573078B1, “Compounds which inhibit HIV replication” (priority 1992, dated 2003).

How the values were obtained:
Type in all cases: cell-based
HIV-1LAI [1] = experiment: Peptide inhibition of infection by cell-free virus (neutralization assay; AA5 cells, RT activity readout)
Method: Cell cultures were maintained in 96-well microtiter plates for 8 days by addition of fresh medium (but no further addition of peptides) every other day. On the eighth day post-infection, supernatant was tested for reverse transcriptase activity as evidence of successful infection.
The micro RT assay was adapted from Goff et al. (J. Virol. 38, 239 (1981)) and Willey et al. (J. Virol. 62, 139 (1988)). Supernatants from virus/cell cultures are made 1% in Triton-X100. A […] sample of supernatant was added to 50 ml of RT cocktail in a 96 well U bottom microtiter plate and the samples incubated at […] for 90 min. The cocktail contained 75 mM KCl, 2 mM dithiothreitol, 5 mm Mgcl2l 5 mg/ml poly A (Pharmacia cat. No. 27-4110-01), 0.25 units/ml oligo dT (Pharmacia cat. No. 27-7858-01), 0.05% NP40, 50 mM Tris-HC1, pH 7.8, 0.5 mM non-radioactive dTTP, and 10 mCi/ml ^32p-dTTP (Amersham cat. No. PB.10167). After the incubation period, 40 ml of reaction mixture was applied to a Schleicher and Schuell NA45 membrane (or DE81 paper) saturated in 2×SSC buffer (0.3M NaCl and […]) held in a Schleicher and Schuell Minifold over one sheet of GB003 filter paper. Each well of the minifold was washed four times with […] 2×SSC. The membrane was removed from the minifold and washed 2 more times in a pyrex dish with an excess of 2×SSC. Finally the membrane was drained on absorbent paper, placed on Whatman #3 paper, covered with saran wrap, and exposed to film overnight.
The HIV1LAI virus was obtained from R. Gallo (see M. Popovic et al., Science 224, 497 (1984)) and propagated in CEM cells cultured in RPMI 1640 containing 10-% FCS. Supernatant from the infected CEM cells was passed through a […] and the infectious titer estimated in a microinfectivity assay using the AA5 cell line to support virus replication. For this purpose 25 ml of serially diluted virus was added to 75 ml AA5 cells at 2×10^5/ml in a 96 well microtiter plate. Each virus dilution was tested in triplicate. Cells were cultured for eight days by addition of fresh medium every other day. On day 8 post infection supernatant samples were tested for virus replication as evidenced by RT activity released to the supernatant in accordance with the procedure described above. The TCID50 was calculated according to the Reed and Muench formula in accordance with known techniques. See L. Reed et al., Amer. J. Hygiene 27, 493 (1938) . The titer of the HIV-1LAI stock used for these studies, as measured on the AA5 cell line, was approximately 1×10^7TCID50/ml. The two primary isolates were obtained from PBMCs of two infected donors, one from Brazil (HIV-1Br3) and the other Trinidad (HIV-1Q72775) by co-cultivation with PHA-blasted normal donor PBMCs in RPMI 1640 containing IL2. The infectious titers of the primary virus stocks were estimated by titration onto normal human PHA blasted PBMCs in a 96 well microtiter plate, again using RT activity released to the supernatant as evidence for successful infection. The infectious titer of both of these isolates was estimated to be approximately 1×10^3 TCID100/ml.
The peptides were next tested for blockade of infection by cell-free virus. The results shown in FIG. 3 are representative of several experiments in which the DP-107, 125, and (CS3) peptides were compared for potency in the blockade of HIVLAI, infection of AA5 cells. Each level of peptide was incubated in triplicate with about 500 TCID50 of virus and cells. After 7 days of culture, cell-free supernatant was tested for the presence of RT activity as a measure of successful infection.

HIV-1LAI virus = experiment: Peptide blockade of HIV-1 induced cell-cell fusion (syncytia formation; Molt4 cells co-cultivated with chronically infected CEM cells); settings: for No. Syncytia/well: Table 3, ctrl cells only = 85
Method: The initial screen for antiviral activity of the peptides shown in FIG. 1 was for blockade of syncytium formation induced by overnight co-cultivation of uninfected Molt4 cells with chronically infected (HIV-1IIIB) CEM cells.
Approximately 7×10^4 Molt cells were incubated with 1×10^4 CEM cells chronically infected with the HIV-1LAI virus in 96 well plates (one-half area cluster plates;Costar. Cambridge, Mass.) in a final volume of […] culture media in accordance with known techniques (T. Matthews et al., Proc. Natl. Acad. Sci. U.S.A. 84, 5424 (1987)). Peptide inhibitors were added in a volume of […] and the cell mixtures were incubated for 24 hr at 37° C. At that time point, multinucleated giant cells were estimated by microscopic examination at a 40× magnification which allowed visualization of the entire well in a single field.

[2] = test system: two primary HIV-1 isolates (HIV-1Br3, HIV-1Q72775); experiment: Peptide inhibition of PBMC infection by primary isolates (RT activity readout); settings: FIG. 5
Method: (§1) About 25 TCID100 of two primary isolates and HIV-1LAI were added to […] human PBMCs (about 1.5×10^6/ml) containing the indicated final concentrations of test peptide or 5T4. Each treatment condition was tested in duplicate and the cells were cultured in RPMI1640 containing 10% FCS 5% IL2. Four days post infection an equal number of fresh PBMCs were added to each well. This step allows for further expansion of virus and increases the […] in the final RT assay. Supernatant was harvested 8 days after infection and tested for the presence of reverse transcriptase activity.
(§2) The micro RT assay was adapted from Goff et al. (J. Virol. 38, 239 (1981)) and Willey et al. (J. Virol. 62, 139 (1988)). Supernatants from virus/cell cultures are made 1% in Triton-X100. A […] sample of supernatant was added to 50 ml of RT cocktail in a 96 well U bottom microtiter plate and the samples incubated at 370° C. for 90 min. […]
(§3) The HIV1LAI virus was obtained from R. Gallo (see M. Popovic et al., Science 224, 497 (1984)) and propagated in CEM cells cultured in RPMI 1640 containing 10-% FCS. […] The TCID50 was calculated according to the Reed and Muench formula in accordance with known techniques. […] The titer of the HIV-1LAI stock used for these studies, as measured on the AA5 cell line, was approximately 1×10^7TCID50/ml. […]

HIV-1LAI [3] = experiment: Peptide inhibition of PBMC infection by prototypic isolate (RT activity readout); settings: FIG. 5
Method: as §1, §2, §3

CGNNLLRAIEAQQHLLQLTVWGIKQLQARILAVERYLKDQ (CGGNNLLRAIEAQQHLLQLTVWGIKQLQARILAVERYLKDQ) [DP-125]
Neutraliz: quantity of compound required for 90% reduction in infectivity (HIV-1LAI [1]): 2 µg/mL
Dose required for inhibitory effect compared with DP-107 (in words) (HIV-1LAI [1]; FIG. 3): lower
Blockade of HIVLAI infection of AA5 cells (in words) (HIV-1LAI [1]; about 500 TCID50 of virus, RT activity in supernatant, FIG. 3): inhibited the de-novo infection process
Syncytia Number (HIV-1LAI virus; EXP. 2, peptide concentration 1.25 micrograms/ml, 0 peptide = 93): 35
Syncytia Number (HIV-1LAI virus; EXP. 2, peptide concentration 2.5 micrograms/ml, 0 peptide = 93): 3
Syncytia Number (HIV-1LAI virus; EXP. 2, peptide concentration 5 micrograms/ml, 0 peptide = 93): 0
Syncytia Number (HIV-1LAI virus; EXP. 2, peptide concentration 10 micrograms/ml, 0 peptide = 93): 0
Syncytia Number (HIV-1LAI virus; EXP. 2, peptide concentration 20 micrograms/ml, 0 peptide = 93): 0
Syncytia Number (HIV-1LAI virus; EXP. 2, peptide concentration 40 micrograms/ml, 0 peptide = 93): 0
Syncytia Number (HIV-1LAI virus; EXP. 3, peptide concentration 1.25 micrograms/ml, 0 peptide = 76): 0
Syncytia Number (HIV-1LAI virus; EXP. 3, peptide concentration 2.5 micrograms/ml, 0 peptide = 76): 0
Syncytia Number (HIV-1LAI virus; EXP. 3, peptide concentration 5 micrograms/ml, 0 peptide = 76): 0
Syncytia Number (HIV-1LAI virus; EXP. 3, peptide concentration 10 micrograms/ml, 0 peptide = 76): 0
Syncytia Number (HIV-1LAI virus; EXP. 3, peptide concentration 20 micrograms/ml, 0 peptide = 76): 0
Syncytia Number (HIV-1LAI virus; EXP. 3, peptide concentration 40 micrograms/ml, 0 peptide = 76): 0
No. Syncytia/well (HIV-1LAI virus; peptide concentration 1.25 ug/ml on IIIB): 0
No. Syncytia/well (HIV-1LAI virus; peptide concentration 2.5 ug/ml on IIIB): 0
No. Syncytia/well (HIV-1LAI virus; peptide concentration 5 ug/ml on IIIB): 0
No. Syncytia/well (HIV-1LAI virus; peptide concentration 10 ug/ml on IIIB): 0
No. Syncytia/well (HIV-1LAI virus; peptide concentration 20 ug/ml on IIIB): 0
No. Syncytia/well (HIV-1LAI virus; peptide concentration 40 ug/ml on IIIB): 0
Fusion: quantity of compound required for 90% reduction in number of syncytia (HIV-1LAI virus; control = 90 syncytia): <1 µg/mL
Concentration required for inhibition relative to DP107 (HIV-1LAI virus; syncytial blocking assays, Table 1 experiments 2 and 3): one-half to one-fourth
Inhibition of PBMC infection by primary isolates (in words) [2]: inhibit
Inhibition of PBMC infection by prototypic isolate HIVLAI (in words) (HIV-1LAI [3]): inhibit
